Source: US4656192A, “Tropolone derivatives, processes for the preparation thereof and the use thereof as anti-tumor agents” (Mect Corporation, priority 1984, dated 1987)
Values after ≈ are worked out from the molar mass of the structure shown.

Columns and labels:
KB-cells = assay: KB-cell growth inhibition tests; format: cell-based; conditions: Homo sapiens, 48 h, MEM-10% calf serum, 5% CO2, 37° C., sample added second day, surviving cells counted fourth day, substantially 50% growth inhibition vs sample-free control, read-out: KB cell growth inhibition ED50
Description: KB-cells were placed in an Eagles minimal essential medium (MEM)-10% calf serum medium and cultered in a 5 % carbon dioxide atmosphere at 37° C. in an incubator. The cells thus treated were used in the tests. On the first day, the KB cells were diluted to a concentration of 2×10^4 /ml 3 ml of the resulting suspension was placed in watch glasses having a diameter of 60 mm. On the second day, 100, 30, 10, 3 and 1 μg/ml of each sample to be tested was added thereto and the culture was continued under the same conditions as above. On the fourth day, the surviving cells were taken out of the watch glass by meand of trypsin and the number of the cells was counted. The concentration of the sample required for obtaining substantially 50 % growth inhibition based on the sample-free control (ED50) was determined. The cancer cell growth inhibition effect of the sample was shown by ED50.

P388 cancer cells = assay: Tests of life-prolongation effects on cancered mice (P388, i.p.); format: in vivo; conditions: Mus musculus, P388, ip, i.p. on first and fifth day, P388 in CDF mice, read-out: Life-prolongation effects T/C %
Description: 10^6 P388 cancer cells were grafted into groups of CDF mice. Each group consisted of six mice. On the first day and the fifth day, a sample to be tested was administered to the mice intraperitoneally. The life-prolongation effects were shown in terms of the ratio of the number of surviving days of the mice in the treated group to that in the control group (T/C %).

Acute toxicity in mice = conditions: mouse, in vivo, male mice
Excerpt: The compounds of the present invention have only a low acute toxicity. For example, the acute toxicities of typical compounds, i.e., α,α-bis(2-hydroxy-6-isopropyl-tropon-3-yl)toluene (IIIa) and α,α-bis(2-hydroxy-6-isopropyl-tropon-3-yl)-4-methoxytoluene (IIIb) have LD50 as shown in the following table: […]

Compound: CCOC(c1ccc(N(C)C)cc1)c1ccc(C(C)C)cc(=O)c1O (stereo not drawn) [Id, 3-[α-ethoxy-4-(N,N-dimethylamino)benzyl]-6-isopropyltropolone]
- IC50 (KB-cells): 0.59 µg/mL (≈ 1.73 µM)
- response vs control in vivo at 100 mg/kg (P388 cancer cells): 136%

Compound: CC(C)c1ccc(C(c2ccc(N(C)C)cc2)c2ccc(C(C)C)cc(=O)c2O)c(O)c(=O)c1 [IIIe, α,α-bis(2-hydroxy-6-isopropyl-tropon-3-yl)-4-(N,N-dimethylamino)toluene]
- IC50 (KB-cells): 0.69 µg/mL (≈ 1.5 µM)
- response vs control in vivo at 2.5 mg/kg (P388 cancer cells): 141%

Compound: Cc1ccc(C(c2ccc(C(C)C)cc(=O)c2O)c2ccc(C(C)C)cc(=O)c2O)cc1 [IIIc, α,α-bis(2-hydroxy-6-isopropyl-tropon-3-yl)-4-methyltoluene]
- IC50 (KB-cells): 1.45 µg/mL (≈ 3.37 µM)
- response vs control in vivo at 2.5 mg/kg (P388 cancer cells): 125%
- response vs control in vivo at 10 mg/kg (P388 cancer cells): 163%

Compound: CCOC(c1ccc(C)cc1)c1ccc(C(C)C)cc(=O)c1O (stereo not drawn) [Ib, 3-(α-ethoxy-4-methylbenzyl)-6-isopropyltropolone]
- IC50 (KB-cells): 6.2 µg/mL (≈ 19.8 µM)
- response vs control in vivo at 400 mg/kg (P388 cancer cells): 125%

Compound: COc1ccc(C(c2cc(C(C)C)ccc(=O)c2O)c2cc(C(C)C)ccc(=O)c2O)cc1 [IVa, α,α-bis(2-hydroxy-5-isopropyltropon-3-yl)-4-methoxytoluene]
- IC50 (KB-cells): 0.3 µg/mL (≈ 0.672 µM)
- response vs control in vivo at 2.5 mg/kg (P388 cancer cells): 137%
- response vs control in vivo at 10 mg/kg (P388 cancer cells): 147%

Compound: O=c1ccccc(C2OCCc3ccccc32)c1O (stereo not drawn) [IIb, 3-(1-isochromanyl)tropolone]
- response vs control in vivo at 100 mg/kg (P388 cancer cells): 96%

Compound: CC(C)c1ccc(C(c2ccccc2)c2ccc(C(C)C)cc(=O)c2O)c(O)c(=O)c1 [IIIa, α,α-bis(2-hydroxy-6-isopropyl-tropon-3-yl)toluene]
- IC50 (KB-cells): < 0.3 µg/mL
- LD50 (Acute toxicity in mice; ip): 5.5 mg/kg
- LD50 (Acute toxicity in mice; iv): 5.8 mg/kg
- LD50 (Acute toxicity in mice; po): > 5000 mg/kg
- response vs control in vivo at 1.25 mg/kg (P388 cancer cells; 1.25 mg/kg): 132%
- response vs control in vivo at 5 mg/kg (P388 cancer cells): 188%

Compound: CC(C)c1ccc(C(c2ccccc2)c2ccccc2)c(O)c(=O)c1 [Ie, 3-benzhydryl-6-isopropyltropolone]
- IC50 (KB-cells): 1.39 µg/mL (≈ 4.21 µM)
- response vs control in vivo at 200 mg/kg (P388 cancer cells): 123%
- response vs control in vivo at 400 mg/kg (P388 cancer cells): 132%

Compound: CCOC(c1ccc(OC)cc1)c1ccc(C(C)C)cc(=O)c1O (stereo not drawn) [Ic, 3-(α-ethoxy-4-methoxybenzyl)-6-isopropyltropolone]
- IC50 (KB-cells): 0.51 µg/mL (≈ 1.55 µM)
- response vs control in vivo at 100 mg/kg (P388 cancer cells): 140%

Compound: CCOC(c1ccccc1)c1ccc(C(C)C)cc(=O)c1O (stereo not drawn) [Ia]
- IC50 (KB-cells): < 0.3 µg/mL
- response vs control in vivo at 200 mg/kg (P388 cancer cells): 109%

Compound: CC(C)c1ccc(C2OCCc3ccccc32)c(O)c(=O)c1 (stereo not drawn) [IIa, 3-(1-isochromanyl)-6-isopropyltropolone]
- IC50 (KB-cells): < 0.3 µg/mL
- response vs control in vivo at 100 mg/kg (P388 cancer cells): 126%

Compound: CC(C)c1ccc(C(c2ccc(Cl)cc2)c2ccc(C(C)C)cc(=O)c2O)c(O)c(=O)c1 [IIId, α,α-bis(2-hydroxy-6-isopropyl-tropon-3yl)-4-chlorotoluene]
- IC50 (KB-cells): 2 µg/mL (≈ 4.43 µM)
- response vs control in vivo at 2.5 mg/kg (P388 cancer cells): 124%
- response vs control in vivo at 10 mg/kg (P388 cancer cells): 144%

Compound: CC(C)c1ccc(Cc2ccccc2)c(O)c(=O)c1 [If, 3-benzyl-6-isopropyltropolone]
- IC50 (KB-cells): 0.56 µg/mL (≈ 2.2 µM)
- response vs control in vivo at 200 mg/kg (P388 cancer cells): 97%

Compound: COc1ccc(C(c2ccc(C(C)C)cc(=O)c2O)c2ccc(C(C)C)cc(=O)c2O)cc1 [IIIb, α,α-bis(2-hydroxy-6-isopropyl-tropon-3-yl)-4-methoxytoluene]
- IC50 (KB-cells): < 0.3 µg/mL
- LD50 (Acute toxicity in mice; ip): 11.2 mg/kg
- LD50 (Acute toxicity in mice; iv): 9.1 mg/kg
- LD50 (Acute toxicity in mice; po): > 5000 mg/kg
- response vs control in vivo at 0.62 mg/kg (P388 cancer cells; 0.62 mg/kg): 127%
- response vs control in vivo at 5 mg/kg (P388 cancer cells): 173%
